One series deals with HEK293 cells. Put plainly: Autophagy flux (LC3-II western blot with and without bafilomycin A1). It is filed as cell-based. The protocol: Autophagy Flux was assessed using western blot by comparing of the cumulative LC3-II levels in HEK293 cells with and without autophagy inhibitor—bafilomycin A1 (vacuolar H+ ATPase inhibitor, 0.1 μM). Bafilomycin A1 inhibits autophagosomes degradation by fusion with lysosome since it prevents the lysosome acidification. LC3-II is an autophagosomal membrane protein therefore it is used as autophagy marker. HEK293 cells were seeded in a 6-well plate 24 hours before treatment in DMEM growth media. The cells were incubated with or without bafilomycin A1 and 3-Methyladenine (3-MA) in EBSS for 2 hours (3-MA, 5 mM) in 37° C. and 5% CO2. 3-MA acts as an autophagy inhibitor since it inhibits III phosphatidylinositol 3-kinases (PI-3K) which produce the endogenous PI3P. At the second hour the cells were treated with Q-starch/PI3P complexes at N/P ratio of 2 and with PI3P alone as control (final PI3P concentration in each well was 0.5 μM).
Up-regulation of autophagy in HEK293 cells with the Q-starch/PI3P complexes was assessed by comparing the autophagy flux for the following conditions (FIG. 7): flux after 3 hours of serum starvation, flux after inhibition of the formation of endogenous PI3P by 3-MA (3-Methyladenine), flux after treatment with 3-MA and complexes at N/P ratio of 2 and flux after treatment with 3-MA and PI3P.
On the technique in general: A western blot detects proteins with antibodies after separation by electrophoresis.

Series [1] in a line: Zeta potential (Zetasizer, Smoluchowski model). To be noted: in mV (unit assumed). Format: physicochemical. The protocol: The hydrodynamic size of the complexes was measured by dynamic light scattering (DLS). Spectra were collected by using CGS-3, (ALV, Langen, Germany). The laser power was 20 mW at the He—Ne laser line (632.8 nm). Correlograms were calculated by ALV/LSE 5003 correlator, which were collected at 90°, during 20 s for 10 times, at 25° C. The correlograms were fitted with version of the program CONTIN (provencher, 1982). Samples of complexes were each diluted to a final volume of 1 mL in DDW. Each sample was measured three times and solutions were further diluted until results were independent of dilution rate. Complexes' size is presented as average of triplicates. Samples from DLS were transferred to U-tube cuvette (DTS 1070, Malvern) for subsequent zeta potential measurements using Zetasizer (ZN-NanoSizer, Malvern, England). Each sample was measured at automatic mode, at 25° C. and the Smoluchowski model was used to calculate the zeta potential. For each sample the zeta potential value was presented as the average value of three runs, and the average value of each N/P ratio is presented as the average of triplicates.

Series [2] can be described thus: Cryo-TEM imaging of complex size and geometry in solution. Format: physicochemical. The conditions noted are these: FIG. 3; complexes at N/P ratios of 2 to 3. The protocol: Complex size and geometry in solution were visualized using Cryo-TEM. TEM at cryogenic temperature (Cryo-TEM) is used for direct imaging of solutions and dispersions. Vitrified specimens are prepared on a copper grid coated with a perforated lacy carbon 300 mesh (Ted Pella Inc.). A typically 4 μl drop from the solution is applied to the grid and blotted with a filter paper to form a thin liquid film of solution. The blotted sample are immediately plunged into liquid ethane at its freezing point (−183° C.). The procedure is performed automatically in the Plunger (Lieca EM GP). The vitrified specimens are transferred into liquid nitrogen for storage. the samples are studied using a FEI Tecnai 12 G2 TEM, at 120 kV with a Gatan cryo-holder maintained at −180° C., and images are recorded on a slow scan cooled charge-coupled device CCD camera Gatan manufacturer. Images are recorded with the Digital Micrograph software package, at low dose conditions, to minimize electron beam radiation damage.

With `Cn1cnc(N)c2ncnc1-2` [3-MA, 3-Methyladenine], in the series with HEK293 cells (3-MA 5 mM alone, compared to serum starvation), the “autophagy flux (difference in LC3-II levels with and without bafilomycin A1)” value is listed as “decrease in the autophagy flux”.

Turning to `CCCCCCCCCCCCCCCC(=O)OC[C@H](COP(=O)(O)OC1[C@H](O)[C@H](OP(=O)(O)O)C(OP(=O)(O)O)[C@H](OP(=O)(O)O)[C@H]1O)OC(=O)CCCCCCCCCCCCCCC` (some centres unmarked) [PIP3, phosphatidylinositol (3,4,5) trisphosphate diC16], the average zeta potential in series [1] (non-complexed component alone (FIG. 1)) is reported as −20.83. For the same compound, in series [2], the “shape in cryo-TEM images” value was “shape of long filaments”. With `CCCCCCCC(=O)OC[C@H](COP(=O)(O)O[C@@H]1[C@H](O)[C@H](OP(=O)(O)O)[C@@H](O)[C@H](O)[C@H]1O)OC(=O)CCCCCCC` [PI3P, Phosphatidylinositol 3-phosphate diC8], the average zeta potential in series [1] (non-complexed alone (FIG. 4B): 0.5 μM PI3P, 0.45 mg/L Q-starch) is recorded as −14.8±3.8. The “autophagy flux (difference in LC3-II levels with and without bafilomycin A1)” value in the series with HEK293 cells (with 3-MA 5 mM in EBSS, final PI3P 0.5 μM, complexes at N/P=2) is “did not affect the levels of autophagy flux”.
